Source: ChEMBL document CHEMBL1137874, “A new class of acyclic 2-alkyl-1,2-diaryl (E)-olefins as selective cyclooxygenase-2 (COX-2) inhibitors” (Bioorg Med Chem Lett, 2004)

Each molecule was assayed against T1, Prostaglandin G/H synthase 1 (Ovis aries, UniProt P05979) (assay: In vitro inhibitory concentration against ovine Prostaglandin G/H synthase 1).
T1 sequence (P05979 whole entry): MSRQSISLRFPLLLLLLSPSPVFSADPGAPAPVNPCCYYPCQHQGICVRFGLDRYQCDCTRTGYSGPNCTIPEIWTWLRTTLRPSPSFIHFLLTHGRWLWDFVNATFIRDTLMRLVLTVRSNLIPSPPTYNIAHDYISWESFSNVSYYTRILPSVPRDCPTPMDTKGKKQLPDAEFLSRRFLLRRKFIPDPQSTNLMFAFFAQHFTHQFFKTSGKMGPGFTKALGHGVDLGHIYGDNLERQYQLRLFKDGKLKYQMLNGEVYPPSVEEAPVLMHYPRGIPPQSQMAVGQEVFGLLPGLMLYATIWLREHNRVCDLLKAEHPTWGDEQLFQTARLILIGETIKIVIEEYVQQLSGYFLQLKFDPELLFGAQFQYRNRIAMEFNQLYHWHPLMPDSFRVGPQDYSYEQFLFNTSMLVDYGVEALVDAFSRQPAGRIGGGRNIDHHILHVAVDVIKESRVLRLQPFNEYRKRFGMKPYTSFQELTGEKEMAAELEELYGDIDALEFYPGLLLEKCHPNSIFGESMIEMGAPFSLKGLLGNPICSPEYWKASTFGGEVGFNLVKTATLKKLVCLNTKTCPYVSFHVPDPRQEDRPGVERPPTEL

Row | Structure (SMILES) | IC50 [µM]
1 | CC/C(=C\c1ccc(C)cc1)c1ccc(S(C)(=O)=O)cc1 | 0.03
2 | CC/C(=C\c1ccccc1)c1ccc(S(C)(=O)=O)cc1 | > 100

Second part, the molecule after the results:

Row | IC50 [µM] | Structure (SMILES)
3 | > 100 | CCCCCC/C(=C\c1ccccc1)c1ccc(S(C)(=O)=O)cc1
4 | > 100 | CCC/C(=C\c1ccccc1)c1ccc(S(C)(=O)=O)cc1
5 | > 100 | CCCCCCC/C(=C\c1ccccc1)c1ccc(S(C)(=O)=O)cc1
